These results are taken from article PMC9329436, “Optimization of the 4-anilinoquin(az)oline scaffold as epidermal growth factor receptor (EGFR) inhibitors for chordoma utilizing a toxicology profiling assay platform” (Scientific Reports, 2022).

Molecules are shown by their SMILES. Like-named read-outs stand apart in the source and are kept apart here.

What all share (assay type): biochemical
Assay [1] concerns the target 320 wild-type protein kinases (Homo sapiens, UniProt O75116). The note with it: kinase ROCK2, singlicate. An excerpt:
(§1) Table S4. Profiling of two compounds at two concentrations against 320 wild-type protein kinases; singlicate measurement; Residual activities (% of control).

The target of assay [2] is 320 wild-type protein kinases (Homo sapiens, UniProt P48729). As to conditions: singlicate.
320 wild-type protein kinases (Homo sapiens, UniProt P48729), sequence (P48729 whole entry): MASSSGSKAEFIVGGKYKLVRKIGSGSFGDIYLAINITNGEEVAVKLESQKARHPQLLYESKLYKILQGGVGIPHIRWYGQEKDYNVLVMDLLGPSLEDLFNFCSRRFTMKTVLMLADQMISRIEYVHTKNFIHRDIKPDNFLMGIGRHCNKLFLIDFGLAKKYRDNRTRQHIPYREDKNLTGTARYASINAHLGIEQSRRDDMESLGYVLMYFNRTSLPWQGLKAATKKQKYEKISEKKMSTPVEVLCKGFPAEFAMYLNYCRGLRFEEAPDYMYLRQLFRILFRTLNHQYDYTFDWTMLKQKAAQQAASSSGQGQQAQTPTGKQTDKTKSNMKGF
Description: as §1

For assay [3], the target named is T1, 320 wild-type protein kinases (Homo sapiens, UniProt P51956).
T1 sequence (P51956 1-506): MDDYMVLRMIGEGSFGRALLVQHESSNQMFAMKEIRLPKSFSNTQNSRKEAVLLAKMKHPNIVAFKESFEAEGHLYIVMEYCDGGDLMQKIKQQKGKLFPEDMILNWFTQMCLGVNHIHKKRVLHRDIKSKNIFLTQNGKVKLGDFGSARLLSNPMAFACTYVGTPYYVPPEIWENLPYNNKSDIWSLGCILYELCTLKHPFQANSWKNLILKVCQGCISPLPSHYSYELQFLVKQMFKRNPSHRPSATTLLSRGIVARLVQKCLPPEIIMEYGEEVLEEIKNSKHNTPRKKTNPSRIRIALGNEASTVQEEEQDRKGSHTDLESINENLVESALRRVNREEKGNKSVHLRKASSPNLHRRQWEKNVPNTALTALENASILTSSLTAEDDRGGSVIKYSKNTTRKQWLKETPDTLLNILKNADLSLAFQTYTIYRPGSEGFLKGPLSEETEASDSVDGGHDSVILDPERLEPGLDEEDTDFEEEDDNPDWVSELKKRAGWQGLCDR
As to conditions: singlicate.
Description: as §1

The target of assay [4] is 320 wild-type protein kinases (Homo sapiens, UniProt Q13882). The note with it: BRK, singlicate.
320 wild-type protein kinases (Homo sapiens, UniProt Q13882), sequence (Q13882 whole entry): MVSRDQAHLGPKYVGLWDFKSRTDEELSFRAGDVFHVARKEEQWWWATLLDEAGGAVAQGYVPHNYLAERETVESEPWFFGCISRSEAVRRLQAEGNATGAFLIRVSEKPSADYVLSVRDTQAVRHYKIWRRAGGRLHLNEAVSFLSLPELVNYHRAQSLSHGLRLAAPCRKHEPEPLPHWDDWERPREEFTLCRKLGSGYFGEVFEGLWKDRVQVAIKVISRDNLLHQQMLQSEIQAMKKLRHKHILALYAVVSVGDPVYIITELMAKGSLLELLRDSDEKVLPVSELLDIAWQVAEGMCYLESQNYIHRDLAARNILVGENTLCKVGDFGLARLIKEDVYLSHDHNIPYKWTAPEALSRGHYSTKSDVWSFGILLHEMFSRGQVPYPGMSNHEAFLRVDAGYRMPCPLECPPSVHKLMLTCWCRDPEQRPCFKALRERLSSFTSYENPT
Description: as §1

Assay [5] has as its target T2, 320 wild-type protein kinases (Homo sapiens, UniProt Q15139).
T2 sequence (Q15139 1-912): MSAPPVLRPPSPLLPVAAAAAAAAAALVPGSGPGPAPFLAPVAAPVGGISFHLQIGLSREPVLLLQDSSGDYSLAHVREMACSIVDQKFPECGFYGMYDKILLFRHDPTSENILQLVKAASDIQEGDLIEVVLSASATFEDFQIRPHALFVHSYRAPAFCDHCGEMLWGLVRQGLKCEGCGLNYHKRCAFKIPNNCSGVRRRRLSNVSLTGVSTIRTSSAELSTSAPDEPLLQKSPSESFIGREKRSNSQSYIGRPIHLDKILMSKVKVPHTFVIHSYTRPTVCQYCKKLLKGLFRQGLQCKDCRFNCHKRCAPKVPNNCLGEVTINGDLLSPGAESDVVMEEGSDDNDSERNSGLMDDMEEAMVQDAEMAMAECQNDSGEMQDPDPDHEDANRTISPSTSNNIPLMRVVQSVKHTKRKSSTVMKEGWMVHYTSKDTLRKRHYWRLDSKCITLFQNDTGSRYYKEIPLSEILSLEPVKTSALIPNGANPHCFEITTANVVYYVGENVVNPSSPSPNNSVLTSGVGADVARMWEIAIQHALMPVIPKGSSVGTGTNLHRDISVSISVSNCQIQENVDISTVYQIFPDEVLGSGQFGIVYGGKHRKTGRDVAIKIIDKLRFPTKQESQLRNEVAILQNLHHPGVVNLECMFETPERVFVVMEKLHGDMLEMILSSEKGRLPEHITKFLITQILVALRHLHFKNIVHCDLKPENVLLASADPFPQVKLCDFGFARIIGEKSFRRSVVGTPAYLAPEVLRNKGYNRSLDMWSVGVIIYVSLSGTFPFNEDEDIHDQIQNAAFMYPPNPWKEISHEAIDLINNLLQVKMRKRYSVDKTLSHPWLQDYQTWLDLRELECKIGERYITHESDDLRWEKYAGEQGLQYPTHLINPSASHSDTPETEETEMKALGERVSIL
As to conditions: PKC-mu, singlicate.
Description: as §1

For assay [6], the target named is T3, 320 wild-type protein kinases (Homo sapiens, UniProt Q16566).
T3 sequence (Q16566 1-473): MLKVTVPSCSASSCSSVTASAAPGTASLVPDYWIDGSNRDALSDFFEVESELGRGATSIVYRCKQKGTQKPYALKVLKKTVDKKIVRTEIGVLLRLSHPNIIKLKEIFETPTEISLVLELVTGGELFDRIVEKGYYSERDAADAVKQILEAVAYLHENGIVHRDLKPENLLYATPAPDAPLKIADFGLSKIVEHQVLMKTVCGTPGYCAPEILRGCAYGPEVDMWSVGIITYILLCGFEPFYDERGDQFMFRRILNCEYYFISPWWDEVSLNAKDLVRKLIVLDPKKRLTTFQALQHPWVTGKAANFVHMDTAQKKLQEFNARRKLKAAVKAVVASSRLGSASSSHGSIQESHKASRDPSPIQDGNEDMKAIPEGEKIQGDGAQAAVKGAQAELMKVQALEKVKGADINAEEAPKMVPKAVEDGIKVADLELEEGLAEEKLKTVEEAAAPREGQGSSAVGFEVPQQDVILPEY
As to conditions: singlicate.
Description: as §1

The target of assay [7] is 320 wild-type protein kinases (Homo sapiens, UniProt Q9H2X6). As to conditions: singlicate.
320 wild-type protein kinases (Homo sapiens, UniProt Q9H2X6), sequence (Q9H2X6 whole entry): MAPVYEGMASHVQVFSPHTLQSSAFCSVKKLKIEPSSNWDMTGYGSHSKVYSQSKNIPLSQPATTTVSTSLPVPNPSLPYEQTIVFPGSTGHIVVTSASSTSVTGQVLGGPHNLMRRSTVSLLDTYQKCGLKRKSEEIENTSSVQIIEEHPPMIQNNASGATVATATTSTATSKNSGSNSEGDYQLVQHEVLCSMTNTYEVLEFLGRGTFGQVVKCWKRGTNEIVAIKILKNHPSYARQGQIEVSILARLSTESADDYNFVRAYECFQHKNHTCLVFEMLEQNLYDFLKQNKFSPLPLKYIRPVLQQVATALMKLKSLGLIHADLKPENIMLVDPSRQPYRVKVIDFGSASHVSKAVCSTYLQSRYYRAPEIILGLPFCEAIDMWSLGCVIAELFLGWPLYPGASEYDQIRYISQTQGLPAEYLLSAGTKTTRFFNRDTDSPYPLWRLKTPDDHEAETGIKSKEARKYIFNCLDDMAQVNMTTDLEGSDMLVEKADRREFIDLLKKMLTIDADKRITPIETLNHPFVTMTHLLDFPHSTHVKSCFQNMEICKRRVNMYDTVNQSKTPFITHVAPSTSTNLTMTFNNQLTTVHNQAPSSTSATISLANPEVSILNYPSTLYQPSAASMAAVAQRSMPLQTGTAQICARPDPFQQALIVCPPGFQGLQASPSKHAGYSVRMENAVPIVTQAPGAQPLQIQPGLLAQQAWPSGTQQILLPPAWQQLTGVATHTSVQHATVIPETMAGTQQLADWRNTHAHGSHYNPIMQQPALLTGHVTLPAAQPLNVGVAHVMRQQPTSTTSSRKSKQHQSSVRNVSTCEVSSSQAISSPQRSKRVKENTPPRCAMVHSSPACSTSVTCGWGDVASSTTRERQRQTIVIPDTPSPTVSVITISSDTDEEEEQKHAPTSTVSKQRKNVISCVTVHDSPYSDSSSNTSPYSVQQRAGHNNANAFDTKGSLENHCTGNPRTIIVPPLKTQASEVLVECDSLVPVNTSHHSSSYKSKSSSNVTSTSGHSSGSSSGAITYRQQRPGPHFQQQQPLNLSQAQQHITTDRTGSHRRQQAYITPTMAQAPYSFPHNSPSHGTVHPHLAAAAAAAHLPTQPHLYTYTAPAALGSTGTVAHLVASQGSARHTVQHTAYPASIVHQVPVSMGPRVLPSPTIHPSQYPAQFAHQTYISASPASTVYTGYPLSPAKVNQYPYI
Description: as §1

Assay [8] concerns the target T4, 320 wild-type protein kinases (Homo sapiens, UniProt Q9NWZ3).
T4 sequence (Q9NWZ3 1-460): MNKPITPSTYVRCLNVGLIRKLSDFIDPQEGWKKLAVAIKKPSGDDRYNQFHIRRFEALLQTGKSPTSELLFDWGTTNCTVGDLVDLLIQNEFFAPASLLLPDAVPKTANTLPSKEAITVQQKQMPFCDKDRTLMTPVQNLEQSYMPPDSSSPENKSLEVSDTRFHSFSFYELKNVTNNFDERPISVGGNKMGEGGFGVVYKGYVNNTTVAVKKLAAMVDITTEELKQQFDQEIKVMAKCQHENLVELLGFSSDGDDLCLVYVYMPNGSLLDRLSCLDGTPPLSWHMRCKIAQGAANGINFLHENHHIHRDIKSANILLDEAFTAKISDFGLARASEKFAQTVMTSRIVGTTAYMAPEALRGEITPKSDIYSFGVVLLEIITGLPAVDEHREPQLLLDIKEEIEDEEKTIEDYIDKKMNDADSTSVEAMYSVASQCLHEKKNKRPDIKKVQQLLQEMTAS
As to conditions: IRAK4 (untagged), singlicate.
Description: as §1

320 wild-type protein kinases (Homo sapiens, UniProt O75116), sequence (O75116 whole entry): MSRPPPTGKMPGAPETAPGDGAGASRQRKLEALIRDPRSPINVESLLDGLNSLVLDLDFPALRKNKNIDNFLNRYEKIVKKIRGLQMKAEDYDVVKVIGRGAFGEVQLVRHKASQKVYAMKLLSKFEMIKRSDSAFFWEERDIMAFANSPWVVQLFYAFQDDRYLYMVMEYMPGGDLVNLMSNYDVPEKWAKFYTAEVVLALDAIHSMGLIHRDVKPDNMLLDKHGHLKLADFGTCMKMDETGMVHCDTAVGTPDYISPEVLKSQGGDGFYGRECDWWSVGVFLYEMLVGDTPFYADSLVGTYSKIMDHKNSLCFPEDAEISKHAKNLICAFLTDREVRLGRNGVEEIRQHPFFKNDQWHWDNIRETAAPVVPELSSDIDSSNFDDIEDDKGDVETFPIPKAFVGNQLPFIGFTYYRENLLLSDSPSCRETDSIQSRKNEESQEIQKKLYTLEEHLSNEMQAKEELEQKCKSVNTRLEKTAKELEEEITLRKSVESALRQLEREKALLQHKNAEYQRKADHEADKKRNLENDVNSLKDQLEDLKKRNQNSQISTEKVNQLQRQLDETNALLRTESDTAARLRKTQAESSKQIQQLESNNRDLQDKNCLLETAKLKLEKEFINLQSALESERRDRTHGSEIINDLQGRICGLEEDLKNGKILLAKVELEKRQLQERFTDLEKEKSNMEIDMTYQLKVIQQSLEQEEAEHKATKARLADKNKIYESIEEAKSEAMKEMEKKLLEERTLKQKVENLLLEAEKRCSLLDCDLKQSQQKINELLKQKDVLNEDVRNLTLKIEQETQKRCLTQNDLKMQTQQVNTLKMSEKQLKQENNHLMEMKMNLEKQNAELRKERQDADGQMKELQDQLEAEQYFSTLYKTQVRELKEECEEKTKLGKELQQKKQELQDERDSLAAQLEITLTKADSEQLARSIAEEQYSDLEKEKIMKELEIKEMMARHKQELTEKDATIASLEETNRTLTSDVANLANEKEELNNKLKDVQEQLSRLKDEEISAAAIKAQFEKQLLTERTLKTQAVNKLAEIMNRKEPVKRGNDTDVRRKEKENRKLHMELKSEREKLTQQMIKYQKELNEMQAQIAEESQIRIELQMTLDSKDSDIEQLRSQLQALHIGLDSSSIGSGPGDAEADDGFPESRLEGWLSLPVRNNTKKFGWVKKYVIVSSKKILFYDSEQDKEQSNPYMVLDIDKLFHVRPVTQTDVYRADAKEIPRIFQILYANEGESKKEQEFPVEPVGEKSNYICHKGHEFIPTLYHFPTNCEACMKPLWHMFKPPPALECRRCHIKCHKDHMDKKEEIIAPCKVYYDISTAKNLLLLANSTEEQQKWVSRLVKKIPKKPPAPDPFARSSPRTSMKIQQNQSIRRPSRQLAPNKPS

`C#Cc1cc(Nc2ncnc3cc(OC)c(OC)cc23)ccc1Cl` [Compound 45]: the “Residual activity, ROCK2” value was 84 % of control in assay [1] (assay conc. 1.0E-06 M) and 90 % of control in assay [1] (assay conc. 1.0E-07 M). For the same molecule, the Residual activity is listed as 95 % of control in assay [2] (CK1-alpha1, 1.0E-06 M); 98 % of control in assay [2] (CK1-alpha1, 1.0E-07 M); 113 % of control in assay [3] (NEK3, 1.0E-06 M); 101 % of control in assay [3] (NEK3, 1.0E-07 M); 70 % of control in assay [4] (1.0E-06 M); 96 % of control in assay [4] (1.0E-07 M). Moreover, the Residual activity in assay [5] (1.0E-06 M) is 73 % of control; in assay [5] (1.0E-07 M), 92 % of control; in assay [6] (CAMK4, 1.0E-06 M), 89 % of control; in assay [6] (CAMK4, 1.0E-07 M), 84 % of control; in assay [7] (HIPK2, 1.0E-06 M), 94 % of control; in assay [7] (HIPK2, 1.0E-07 M), 98 % of control. Besides, the Residual activity in assay [8] (1.0E-06 M) is 69 % of control; in assay [8] (1.0E-07 M) it was 90 % of control.

In the case of `C#Cc1cc(Nc2ncnc3cc(I)ccc23)ccc1Cl` [Compound 41], the results for the “Residual activity, ROCK2” value in assay [1] (assay conc. 1.0E-06 M) and in assay [1] (assay conc. 1.0E-07 M) were 88 % of control and 100 % of control, respectively. The Residual activity is listed as 99 % of control in assay [2] (CK1-alpha1, 1.0E-06 M); 104 % of control in assay [2] (CK1-alpha1, 1.0E-07 M); 103 % of control in assay [3] (NEK3, 1.0E-06 M); 110 % of control in assay [3] (NEK3, 1.0E-07 M); 110 % of control in assay [4] (1.0E-06 M); 100 % of control in assay [4] (1.0E-07 M). In addition, the Residual activity was 89 % of control in assay [5] (1.0E-06 M); 111 % of control in assay [5] (1.0E-07 M); 91 % of control in assay [6] (CAMK4, 1.0E-06 M); 84 % of control in assay [6] (CAMK4, 1.0E-07 M); 101 % of control in assay [7] (HIPK2, 1.0E-06 M); 97 % of control in assay [7] (HIPK2, 1.0E-07 M). Also, the Residual activity is recorded as 84 % of control in assay [8] (1.0E-06 M) and 96 % of control in assay [8] (1.0E-07 M).
